The numbers were not newly measured in PMC5600712 (ACS chemical biology, 2017), which cites them from elsewhere.

The subject of one data set is proteasome. Conditions: α,β-epoxyketone proteasome inhibitor.
The next data set relates to class I HDACs. The note with it: class I compared with class II HDACs.

Turning to `CC(C)C[C@H](NC(=O)[C@H](CCc1ccccc1)NC(=O)CN1CCOCC1)C(=O)N[C@@H](Cc1ccccc1)C(=O)N[C@@H](CC(C)C)C(=O)[C@@]1(C)CO1` [carfilzomib], the “covalent adduct formation with proteasome” value in the data set on proteasome is “forms a covalent adduct to block proteasome function”.
On to HC toxin, for which, in the data set with class I HDACs, the “selectivity of binding, class I versus class II HDACs” value is given as “tighter binding of these inhibitors to class I HDACs”.
